# Test results taken from patent US20060058325A1, “Therapeutic quniazoline derivatives” (AstraZeneca AB, priority 2002, published 2006).
# What was measured:
# [1] = target: T1, Aurora-A (Homo sapiens, UniProt O14965); assay: In vitro Aurora-A kinase inhibition test; assay type: biochemical
# T1 construct: made in house; host or cells: Spodoptera frugiperda Sf21 insect cells (baculovirus)
# T1 sequence (O14965 1-403): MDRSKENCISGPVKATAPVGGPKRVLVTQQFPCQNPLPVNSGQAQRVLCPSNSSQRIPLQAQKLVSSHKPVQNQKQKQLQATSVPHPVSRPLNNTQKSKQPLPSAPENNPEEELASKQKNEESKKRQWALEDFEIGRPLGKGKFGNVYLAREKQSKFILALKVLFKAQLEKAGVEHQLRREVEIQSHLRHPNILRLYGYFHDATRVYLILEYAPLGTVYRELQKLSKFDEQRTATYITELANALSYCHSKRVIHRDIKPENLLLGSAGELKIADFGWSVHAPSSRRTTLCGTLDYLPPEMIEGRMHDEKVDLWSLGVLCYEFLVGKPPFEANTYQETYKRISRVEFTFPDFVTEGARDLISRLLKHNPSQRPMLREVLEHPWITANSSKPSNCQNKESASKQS
# [2] = target: T2, Aurora-B (Homo sapiens, UniProt Q96GD4); assay: In vitro Aurora-B kinase inhibition test; assay type: biochemical; conditions: recombinant Aurora-B, 33P-ATP peptide substrate, 60 minutes room temperature; read-out: concentration giving 50% inhibition of enzyme activity
# T2 construct: 6-histidine; made in house; host or cells: Spodoptera frugiperda Sf21 insect cells (baculovirus)
# T2 sequence (Q96GD4 whole entry): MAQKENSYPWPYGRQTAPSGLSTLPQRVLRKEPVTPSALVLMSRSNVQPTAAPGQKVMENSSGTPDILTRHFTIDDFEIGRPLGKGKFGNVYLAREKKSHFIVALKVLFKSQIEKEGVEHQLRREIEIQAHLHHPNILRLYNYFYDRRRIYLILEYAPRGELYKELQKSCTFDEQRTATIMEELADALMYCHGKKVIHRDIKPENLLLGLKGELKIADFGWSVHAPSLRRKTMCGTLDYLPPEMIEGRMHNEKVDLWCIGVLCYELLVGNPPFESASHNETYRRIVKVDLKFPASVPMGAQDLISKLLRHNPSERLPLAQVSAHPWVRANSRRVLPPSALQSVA
# Excerpt: (b) In Vitro Aurora-B Kinase Inhibition Test
# This assay determines the ability of a test compound to inhibit serine-threonine kinase activity. DNA encoding Aurora-B may be obtained by total gene synthesis or by cloning. This DNA may then be expressed in a suitable expression system to obtain polypeptide with serine-threonine kinase activity. In the case of Aurora-B, the coding sequence was isolated from cDNA by polymerase chain reaction (PCR) and cloned into the pFastBac system in a manner similar to that described above for Aurora-A (i.e. to direct expression of a 6-histidine tagged Aurora-B protein).
# For the large scale expression of Aurora-B kinase activity, Sf21 insect cells were grown at 28° C. in TC100 medium supplemented with 10% foetal calf serum (Viralex) and 0.2% F68 Pluronic (Sigma) on a Wheaton roller rig at 3 r.p.m. When the cell density reached 1.2×10^6 cells ml^−1 they were infected with plaque-pure Aurora-B recombinant virus at a multiplicity of infection of 1 and harvested 48 hours later. All subsequent purification steps were performed at 4° C. […]
# [3] = test system: SW620 cells; assay: In vitro cell proliferation assay (BrdU incorporation); assay type: cell-based; conditions: Homo sapiens, SW-620, 48 hours with compound, 2 hour BrdU labelling, read-out: concentration active in test (50% inhibition of BrdU incorporation)
# Excerpt: (c) In Vitro Cell Proliferation Assay
# This and other assays can be used to determine the ability of a test compound to inhibit the growth of adherent mammalian cell lines, for example the human tumour cell line SW620 (ATCC CCL-227). This assay determines the ability of at test compound to inhibit the incorporation of the thymidine analogue, 5′-bromo-2′-deoxy-uridine (BrdlD into cellular DNA. SW620 or other adherent cells were typically seeded at 1×10^5 cells per well in L-15 media (GIBCO) plus 5% foetal calf serum, 1% L-glutamine (100 μl /well) in 96 well tissue culture treated 96 well plates (Costar) and allowed to adhere overnight. The following day the cells were dosed with compound (diluted from 10 mM stock in DMSO using L-15 (with 5% FCS, 1% L-glutamine). Untreated control wells and wells containing a compound known to give 100% inhibition of BrdU incorporation were included on each plate. After 48 hours in the presence/absence of test compound the ability of the cells to incorporate BrdU over a 2 hour labelling period was determined using a Boelringer (Roche) Cell Proliferation BrdU ELISA kit (cat. No. 1 647 229) according to manufacturers directions. […] The optical density of the wells was then determined at 690 nm wavelength using a Titertek Multiscan plate reader. […]
# [4] = test system: SW620 cells; assay: In vitro cell cycle analysis assay (FACS DNA content); assay type: cell-based, human; conditions: 24 hours with compound
# Procedure: (d) In Vitro Cell Cycle Analysis Assay
# This assay determines the ability of a test compound to arrest cells in specific phases of the cell cycle. Many different mammalian cell lines could be used in this assay and SW620 cells are included here as an example. SW620 cells were seeded at 7×10^5 cells per T25 flask (Costar) in 5 ml L-15 (5% FCS, 1% L-glutamine). Flasks were then incubated overnight in a humidified 37° C. incubator with 5% CO2. The following day, 5 μl of L-15 (5% FCS, 1% L-glutamine) carrying the appropriate concentration of test compound solubilised in DMSO was added to the flask. A no compound control treatments was also included (0.5% DMSO). The cells were then incubated for a defined time (24 hours) with compound. […]
# Each sample was then syringed 10 times using 21-guage needle. The samples were then transferred to LPS tubes and DNA content per cell analysed by Fluorescence activated cell sorting (FACS) using a FACScan flow cytometer (Becton Dickinson). Typically 30,000 events were counted and recorded using CellQuest v1.1 software (Verity Software). Cell cycle distribution of the population was calculated using Modfit software (Verity Software) and expressed as percentage of cells with 2N (G0/G1), 2N-4N (S phase) and with 4N (G2/M) DNA content. […]
structure (smiles),measurement,setting,value
"CCN(CCCOc1cc2ncnc(Nc3cnc(NC(=O)c4ccc(F)c(Cl)c4)nc3)c2cc1OC)CCOP(=O)(O)O [Compound 24, 2-[(3-{[4-({2-[(3-chloro-4-fluorobenzoyl)amino]pyrimidin-5-yl}amino)-6-methoxyquinazolin-7-yl]oxy}propyl)(ethyl)amino]ethyl dihydrogen phosphate]",IC50,[1],0.3 nM
same,IC50,[2],12.3 nM
same,IC50,[3],300 nM
same,concentration active in cell cycle analysis test,[4],1.5 µM
